Test results from ChEMBL document CHEMBL5126595, “Identification and anti-tumor evaluation of 3-acyl-indol-based 2,4-diarylaminopyrimidine analogues as potent ALK inhibitors capable of overcoming drug-resistant mutants” (Eur J Med Chem, 2022).
The source made the active and inactive calls. The rule behind the calls is not given here.

Experiments:
[1] = Toxicity in BALB/c nude mouse xenografted with human NCI-H2228 cells assessed as effect on body weight at 25 to 50 mg/kg, IG administered every 2 days for 7 times; assay type: organism-based; conditions: in vivo, po, 48 h, dose 25-50 mg/kg, time 2 day
[2] = AUC (0 to t) in Sprague-Dawley rat at 10 mg/kg, po by LC-MS/MS analysis; assay type: ADME, organism-based; set-up: dose 10 mg/kg, route po; conditions: in vivo
NCI-H2228 [3] = experiment: Induction of cell cycle arrest in human NCI-H2228 cells assessed as increase in G1 phase cells at 50 nM incubated for 48 hrs by PI/RNase staining based flow cytometry analysis (reference value: 49.72 %); assay type: functional
NCI-H2228 [4] = experiment: Induction of apoptosis in human NCI-H2228 cells assessed as total apoptotic cells at 100 nM incubated for 48 hrs by AnnexinV-FITC/propidium iodide staining based flow cytometry analysis; assay type: functional
NCI-H2228 [5] = experiment: Induction of apoptosis in human NCI-H2228 cells assessed as appearance of apoptotic bodies at 25 to 100 nM incubated for 48 hrs by Hoechst 33342 staining based fluorescence microscopic analysis; assay type: functional, cell-based; conditions: dose 25-100 nM
[6] = Potency index, ratio of test compound IC50 to ceritinib IC50 antiproliferative activity […] EML4-ALK-G1202R cells assessed as inhibition of cell growth incubated for 72 hrs by MTT assay; assay type: functional
NCI-H2228 [7] = experiment: Induction of apoptosis in human NCI-H2228 cells assessed as early apoptotic cells at 25 nM incubated for 48 hrs by AnnexinV-FITC/propidium iodide staining based flow cytometry analysis (reference value: 2.45 %); assay type: functional
NCI-H2228 [8] = experiment: Induction of cell cycle arrest in human NCI-H2228 cells assessed as decrease in S phase cells at 100 nM incubated for 48 hrs by PI/RNase staining based flow cytometry analysis (reference value: 34.90 %); assay type: functional; set-up: scale not given: the % may be the effect or the level left
NCI-H2228 [9] = experiment: Induction of apoptosis in human NCI-H2228 cells assessed as viable cells at 25 nM incubated for 48 hrs by AnnexinV-FITC/propidium iodide staining based flow cytometry analysis (reference value: 92.3 %); assay type: functional; conditions: read-out: Activity
NCI-H2228 [10] = experiment: Antiproliferative activity against EML4-ALK positive human NCI-H2228 cells assessed as inhibition of cell growth incubated for 72 hrs by MTT assay; assay type: functional, cell-based; conditions: NCI-H2228, 72 h
NCI-H2228 [11] = experiment: Induction of apoptosis in human NCI-H2228 cells assessed as late apoptotic cells at 100 nM incubated for 48 hrs by AnnexinV-FITC/propidium iodide staining based flow cytometry analysis (reference value: 4.72 %); assay type: functional
[12] = molecular target: ALK tyrosine kinase receptor (Homo sapiens, UniProt Q9UM73); experiment: Inhibition of ALK downstream signalling in human NCI-H2228 cells assessed as reduction in phosphorylated ERK level measured after 24 hrs by Western blot analysis; assay type: cell-based; conditions: dose 25-100 nM, DDE = dose-dependent effect
Sequence of ALK tyrosine kinase receptor (Q9UM73 19-1620 limits assumed): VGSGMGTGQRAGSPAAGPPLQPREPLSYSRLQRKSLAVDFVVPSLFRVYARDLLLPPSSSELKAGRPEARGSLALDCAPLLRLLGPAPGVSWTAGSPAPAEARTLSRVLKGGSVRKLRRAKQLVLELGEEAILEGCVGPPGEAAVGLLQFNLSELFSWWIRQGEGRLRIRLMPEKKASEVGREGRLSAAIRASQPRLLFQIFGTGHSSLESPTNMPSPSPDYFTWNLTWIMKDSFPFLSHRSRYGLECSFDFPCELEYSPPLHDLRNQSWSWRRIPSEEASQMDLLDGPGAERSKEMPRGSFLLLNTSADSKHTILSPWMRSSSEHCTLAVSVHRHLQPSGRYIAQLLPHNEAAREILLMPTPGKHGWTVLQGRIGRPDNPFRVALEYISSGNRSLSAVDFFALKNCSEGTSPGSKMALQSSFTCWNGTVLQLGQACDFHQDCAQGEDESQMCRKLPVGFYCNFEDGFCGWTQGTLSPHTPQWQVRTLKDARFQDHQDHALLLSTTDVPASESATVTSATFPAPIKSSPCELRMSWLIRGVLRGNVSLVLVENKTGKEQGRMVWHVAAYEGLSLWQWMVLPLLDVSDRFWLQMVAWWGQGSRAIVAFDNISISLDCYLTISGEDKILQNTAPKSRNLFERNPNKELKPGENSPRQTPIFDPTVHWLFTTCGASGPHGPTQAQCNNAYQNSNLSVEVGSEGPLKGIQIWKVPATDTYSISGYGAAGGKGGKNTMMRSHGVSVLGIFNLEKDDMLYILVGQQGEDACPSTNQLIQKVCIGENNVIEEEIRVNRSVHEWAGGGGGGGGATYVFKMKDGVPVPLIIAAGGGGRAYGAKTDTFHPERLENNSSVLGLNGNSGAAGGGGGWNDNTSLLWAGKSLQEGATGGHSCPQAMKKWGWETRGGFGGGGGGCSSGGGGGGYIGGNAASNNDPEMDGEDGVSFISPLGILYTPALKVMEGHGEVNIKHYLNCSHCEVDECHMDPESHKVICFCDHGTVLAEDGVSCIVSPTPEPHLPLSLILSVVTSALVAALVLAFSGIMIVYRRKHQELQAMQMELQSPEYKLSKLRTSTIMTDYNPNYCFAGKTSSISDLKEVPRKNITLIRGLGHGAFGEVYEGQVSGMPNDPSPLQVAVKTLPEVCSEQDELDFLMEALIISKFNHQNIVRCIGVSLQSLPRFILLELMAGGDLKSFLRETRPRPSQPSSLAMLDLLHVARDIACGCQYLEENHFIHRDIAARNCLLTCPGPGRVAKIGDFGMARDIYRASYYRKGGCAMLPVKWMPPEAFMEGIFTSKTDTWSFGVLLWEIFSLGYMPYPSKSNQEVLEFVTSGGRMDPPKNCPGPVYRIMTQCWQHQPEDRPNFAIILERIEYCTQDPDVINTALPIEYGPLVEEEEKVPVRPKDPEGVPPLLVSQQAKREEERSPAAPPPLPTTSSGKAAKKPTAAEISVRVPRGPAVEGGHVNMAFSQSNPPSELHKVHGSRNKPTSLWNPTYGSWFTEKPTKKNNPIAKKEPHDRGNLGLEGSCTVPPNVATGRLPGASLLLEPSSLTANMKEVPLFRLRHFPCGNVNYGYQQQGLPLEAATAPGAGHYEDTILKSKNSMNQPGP

For `CNC(=O)c1ccccc1Nc1nc(Nc2ccc3c(C(=O)N(C)C)c(C)[nH]c3c2)ncc1Cl`, the Activity [1] was “Non-Toxic”, the AUC(0-t) [2] was 1720 ng·h/mL and the Activity (NCI-H2228 [3]) was 54.44%. For the same molecule, the Activity (NCI-H2228 [4]) was 31.7%, the Activity (NCI-H2228 [5]) was “Active” and the “Ratio IC50” value [6] was 61. The Activity (NCI-H2228 [7]) was 3.73%, the Activity (NCI-H2228 [8]) was 29.32% and the viability at 0.025 µM (NCI-H2228 [9]) was 84.1%. The IC50 (NCI-H2228 [10]) was 37 nM, the Activity (NCI-H2228 [11]) was 23% and the inhibition [12] was “Dde”.
